{"source": "patent US9486502B2", "about": "“Methods of administering interferon gamma to absorb fluid from the subretinal space” (The United States of America, as represented by the …, priority 2008, dated 2016)", "key": {"hfRPE monolayers [1]": {"tested_on": "hfRPE monolayers", "assay": "fluid transport (JV, TEP, RT) across hfRPE monolayers in modified Üssing chamber", "format": "cell-based, human", "conditions": "for effect on JV after P38 MAPK inhibitor: CFTR inhibitor added to basal bath after P38 MAPK inhibitor", "text": "Confluent monolayers of hfRPE cultured on transwells were mounted in a modified Üssing chamber and transepithelial water flow measurements (JV) were made with a capacitance probe technique as described previously in Maminishkis, A., et al., Invest Ophthalmol Vis Sci, 2006, 47, 3612-3624; Shi, G., et al., Invest Ophthalmol Vis Sci, 2008, 49, 4620-4630; Edelman, J. L., et al., Invest Ophthalmol Vis Sci, 1991, 32, 3033-3040; Jiang, C., et al., Science, 1993, 262, 424-427; and Maminishkis, A., et al., Invest Ophthalmol Vis Sci, 2002, 43, 3555-3566, each incorporated herein by reference in its entirety.\nTissue viability was ascertained by recording transepithelial potential (TEP) and total tissue resistance (RT). It should be noted that the solution composition changes in this chamber were relatively slow (≈1-2 chamber volumes per minute) and the data sampling rate was once per minute, more than two orders of magnitude slower than the sampling rate in the electrophysiology chamber (see below). Therefore it was not possible to record fast changes, in seconds or minutes, in JV, TEP, or RT. After addition of IFNγ to the apical or basal baths, steady-state JV, TEP, and RT were recorded for 20-30 minutes. In control experiments, successive additions of IFNγ were made to test for the repeatability and reversibility of responses. To block IFNγ effects, RPE cells were incubated for 30-60 minutes with a blocking antibody against IFNγ R1, JAK inhibitor I, PKA inhibitors (H-89, EMD Biosciences; RP-8-Br-cAMPS, Sigma-Aldrich), nitric oxide synthase inhibitor (aminoguanidine hydrochloride, Sigma-Aldrich), P38 MAPK inhibitors (SB203580 or SB20290), or CHX. Other components of this signaling pathway were studied using P38 MAPK inhibitors (SB203580 and SB202190). Relatively specific Cl channel inhibitors, CFTRinh-172 or DIDS (EMD Biosciences, La Jolla, Calif.), were used to block cAMP or Ca^2+-activated Cl channels; experiments with CFTRinh-172 were performed as described in Muanprasat, C., et al., J Gen Physiol, 2004, 124, 125-137, incorporated herein by reference in its entirety. In chronic experiments, paired hfRPE tissues with matched RT values were incubated for 4-24 hours with IFNγ or CHX. The subsequent changes in JV, RT, and TEP were measured in Ringer's solution or serum free cell culture media as previously described in Shi, G., et al., Invest Ophthalmol Vis Sci, 2008 and Maminishkis, A., et al., Invest Ophthalmol Vis Sci, 2006, 47, 3612-3624, each incorporated herein by reference in its entirety. Intracellular levels of NO were elevated with 1-Hydroxy-2-oxo-3-(3-aminopropyl)-3-isopropyl-1-triazene (NOC-5, Enzo Life Sciences, Plymouth, Pa.). 8-Br-cGMP was purchased from Sigma-Aldrich."}, "hfRPE monolayers [2]": {"tested_on": "hfRPE monolayers", "assay": "electrophysiology of hfRPE monolayers (TEP, RT, VA, VB, RA/RB)", "format": "cell-based, human", "text": "Equivalent circuit analysis and electrophysiological methods have been previously described in Quinn, R. H., et al., Invest Ophthalmol Vis Sci, 1992, 33, 3513-3527; Joseph D. P., et al., J Physiol, 1991, 435, 439-463; and Maminishkis, A., et al., 2006, Ophthalmol Vis Sci, 47, 3612-3624each incorporated herein by reference in its entirety.\nBriefly, confluent monolayers of cultured hfRPE were mounted on a nylon mesh support and clamped into a modified Üssing chamber that allowed the rapid exchange of Ringer's solution (≈10 chamber volumes per minute) and the measurement of fast electrical changes in seconds. The electrical connections to the apical and basal chambers were made with Ringer-agar bridges in series with calomel electrodes. Intracellular potentials were recorded with conventional microelectrodes, back-filled with 150 mM KCl, with resistances of 80 to 200 Ma The apical and basolateral membrane potentials (VA and VB) are calculated as the voltage differences between the intracellular microelectrode and the apical and basal bath electrodes, respectively. The resistances of the apical and basolateral membranes were designated RA and RB, respectively, and the transepithelial potential (TEP=VB-VA) is the voltage difference between the apical and basal bath electrodes. Epithelial resistance parameters were obtained by passing 4-μA bipolar current pulses (i) using Ag—AgCl electrodes, one located in the apical chamber and the other located in the basal chamber. The total transepithelial resistance (Rt) is calculated from the current-induced changes in TEP (Rt=ΔTEP/i). The apparent membrane resistance ratio (RA/RB) is calculated from the ratio of change in VA to change in VB (RA/RB=ΔVA/ΔVB).\nThe control Ringer's solution for measurements of TEP and Rt in culture hfRPE contained 116 mM NaCl, 5 mM KCl, 26.2 mM NaHCO3, 1 mM NaH2PO4, 1 mM Mg Cl2, 1.8 mM CaCl2, 10 mM glucose, and 2 mM Taurine. The osmolarity of control Ringer's solution was 295 mOsm. The solutions were maintained at 35° C. and a pH of 7.4, and were bubbled with 10% O2, 5% CO2 and 85% N2. 8-Bromo-cAMP (or Dibutyryl cAMP), 8-Br-cGMP, and forskolin were obtained from Sigma-Aldrich."}, "[3]": {"conditions": "CFTRinh−172 basal bath after IFNγ"}, "[4]": {"conditions": "SB203580 pretreatment ≧30 minutes, n=6"}}}
{"smiles": "O=C(O)c1ccc(/C=C2\\SC(=S)N(c3cccc(C(F)(F)F)c3)C2=O)cc1", "note": "[CFTRinh−172]", "values": [{"measurement": "effect on NOC-5 induced increase in Jv", "setting": "hfRPE monolayers [1]; CFTR inhibitor 5 μM basal bath, NOC-5 250 μM, n=3", "result": "blocked"}, {"measurement": "effect on IFNγ-induced fluid transport after H-89", "setting": "hfRPE monolayers [1]; CFTR inhibitor added after H-89", "result": "no further effect"}, {"measurement": "effect on JV after P38 MAPK inhibitor", "setting": "hfRPE monolayers [1]", "result": "further decrease"}, {"measurement": "effect on JV after P38 MAPK inhibitor", "setting": "hfRPE monolayers [1]; listed as CFTR inhibitor", "result": "further decreased"}, {"measurement": "decrease of the IFNγ-induced JV increase", "setting": "hfRPE monolayers [1]; CFTRinh−172 5 μM basal bath, FIG. 14E", "result": "≈ 9.8 μl·cm^−2·hr^−1"}, {"measurement": "mean JV after inhibitor in IFNγ-treated hfRPE", "setting": "hfRPE monolayers [1]; CFTRinh−172 5 μM, 11 experiments, from 16.6±1.2", "result": "6.8±1.0", "unit": "μl·cm^−2·hr^−1"}, {"measurement": "JV after inhibitor in 24 hour IFNγ-treated hfRPE", "setting": "hfRPE monolayers [1]; CFTRinh−172 5 μM, from 15.1, FIG. 14F", "result": 4.8, "unit": "μl·cm^−2·hr^−1"}, {"measurement": "decrease in JV", "setting": "hfRPE monolayers [1]; CFTRinh−172 added after IFNγ and basal DIDS, n=1", "result": 12.6, "unit": "μl·cm^−2·hr^−1"}, {"measurement": "baseline JV after inhibitor", "setting": "hfRPE monolayers [1]; CFTRinh−172 basal bath, no IFNγ, baseline 12.5 ±3.1, n=5", "result": "3.2 ±1.0", "unit": "μl·cm^−2·hr^−1"}, {"measurement": "Jv after CFTR inhibitor in 8-Br-cGMP-treated hfRPE", "setting": "hfRPE monolayers [1]; FIG. 21, from 19.5", "result": 11.5, "unit": "μl·cm^−2·hr^−1"}, {"measurement": "Jv after CFTR inhibitor in 8-Br-cGMP-treated hfRPE", "setting": "hfRPE monolayers [1]; four experiments, from 15.8±1.6", "result": "8.9±1.3", "unit": "μl·cm^−2·hr^−1"}, {"measurement": "effect on cAMP-induced electrical changes", "setting": "hfRPE monolayers [2]; CFTRinh−172", "result": "blocked"}, {"measurement": "effect on RA/RB", "setting": "hfRPE monolayers [2]; [3]", "result": "slight decrease"}, {"measurement": "effect on RT", "setting": "hfRPE monolayers [2]; [3]", "result": "increased"}, {"measurement": "effect on TEP", "setting": "hfRPE monolayers [2]; [3]", "result": "decreased"}, {"measurement": "effect on both membrane potentials", "setting": "hfRPE monolayers [2]; [3]", "result": "hyperpolarize"}]}
{"smiles": "CC(C)N(CCCN)[N+]([O-])=NO", "note": "[NOC-5, 1-Hydroxy-2-oxo-3-(3-aminopropyl)-3-isopropyl-1-triazene]", "values": [{"measurement": "effect on JV", "setting": "hfRPE monolayers [1]; NOC-5 apical and basal baths, n=3", "result": "more than doubled"}]}
{"smiles": "C[S+]([O-])c1ccc(-c2nc(-c3ccncc3)c(-c3ccc(F)cc3)[nH]2)cc1", "note": "(centres unmarked) [SB203580]", "values": [{"measurement": "decrease of IFNγ-induced JV", "setting": "hfRPE monolayers [1]; SB203580 5 μM", "result": "approximately 62%"}, {"measurement": "effect on IFNγ induced JV", "setting": "hfRPE monolayers [1]; SB 203580 5 μM apical and basal after IFNγ 5 ng/mL, n=9", "result": "decreased"}, {"measurement": "effect on JV following inhibition by basal bath CFTRinh−172", "setting": "hfRPE monolayers [1]; SB203580, n=3", "result": "no further effect"}, {"measurement": "effect on baseline level of JV", "setting": "hfRPE monolayers [1]; [4]", "result": "no significant effect"}, {"measurement": "effect on the effect of IFNγ", "setting": "hfRPE monolayers [1]; [4]", "result": "completely blocked"}]}
{"smiles": "Oc1ccc(-c2nc(-c3ccncc3)c(-c3ccc(F)cc3)[nH]2)cc1", "note": "[SB202190]", "values": [{"measurement": "block of IFNγ stimulated fluid transport", "setting": "hfRPE monolayers [1]; SB202190 1-5 μM", "result": "approximately 46%"}]}
